{
  "source": "patent US6358885B1",
  "about": "“Substituted phenylheterocyclic herbicides” (Mississippi State University, priority 1992, dated 2002)",
  "assay_in_all_cases": "Test B preemergence/postemergence greenhouse plant response rating 0 to 10",
  "key": {"barley": {"test_system": "barley", "type": "in vivo, Hordeum vulgare", "details": "for Plant response rating, Barley: 0 to 10 scale", "outline": "(§1)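 Planted seeds are treated preemergence with compound dissolved in a non-phytotoxic solvent, while postemergence applications go onto plants of two to eighteen cm. Plants stay in the greenhouse twelve to sixteen days and are then rated visually relative to controls.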"}, "barnyardgrass": {"test_system": "barnyardgrass", "type": "in vivo, Echinochloa crus-galli", "details": "for Plant response rating, Barnyardgrass: 0 to 10 scale", "outline": "as §1"}, "chickweed": {"test_system": "chickweed", "type": "in vivo, Stellaria media", "details": "for Plant response rating, Chickweed: 0 to 10 scale", "outline": "as §1"}, "corn": {"test_system": "corn", "type": "in vivo, Zea mays", "details": "for Plant response rating, Corn: 0 to 10 scale", "outline": "as §1"}, "crabgrass": {"test_system": "crabgrass", "type": "in vivo, Digitaria spp.", "details": "for Plant response rating, Crabgrass: 0 to 10 scale", "outline": "as §1"}, "giant foxtail": {"test_system": "giant foxtail", "type": "in vivo, Setaria faberii", "details": "0 to 10 scale", "outline": "as §1"}, "rape": {"test_system": "rape", "type": "in vivo, Brassica napus", "details": "0 to 10 scale", "outline": "as §1"}, "sorghum": {"test_system": "sorghum", "type": "in vivo, Sorghum bicolor", "details": "0 to 10 scale", "outline": "as §1"}, "wheat": {"test_system": "wheat", "type": "in vivo, Triticum aestivum", "details": "0 to 10 scale", "outline": "as §1"}},
  "data": [
    {"smiles": "Fc1cc(Cl)c(OC2CCCC2)cc1-c1nn2c(c1Cl)CCCC2", "note": "[Compound 24]", "values": [
      {"measurement": "Plant response rating (0 to 10 scale), Barley", "setting": "barley; POSTEMERGENCE, Rate 50 g/ha", "value": 4},
      {"measurement": "Plant response rating, Barley", "setting": "barley; POSTEMERGENCE, Rate 200 g/ha", "value": 4},
      {"measurement": "Plant response rating, Barley", "setting": "barley; PREEMERGENCE, Rate 50 g/ha", "value": 0},
      {"measurement": "Plant response rating, Barley", "setting": "barley; Rate 200 g/ha, PREEMERGENCE", "value": 0},
      {"measurement": "Plant response rating (0 to 10 scale), Barnyardgrass", "setting": "barnyardgrass; POSTEMERGENCE, Rate 50 g/ha", "value": 4},
      {"measurement": "Plant response rating, Barnyardgrass", "setting": "barnyardgrass; POSTEMERGENCE, Rate 200 g/ha", "value": 6},
      {"measurement": "Plant response rating, Barnyardgrass", "setting": "barnyardgrass; PREEMERGENCE, Rate 50 g/ha", "value": 1},
      {"measurement": "Plant response rating, Barnyardgrass", "setting": "barnyardgrass; Rate 200 g/ha, PREEMERGENCE", "value": 4},
      {"measurement": "Plant response rating (0 to 10 scale), Chickweed", "setting": "chickweed; POSTEMERGENCE, Rate 50 g/ha", "value": 8},
      {"measurement": "Plant response rating, Chickweed", "setting": "chickweed; POSTEMERGENCE, Rate 200 g/ha", "value": 9},
      {"measurement": "Plant response rating, Chickweed", "setting": "chickweed; PREEMERGENCE, Rate 50 g/ha", "value": 0},
      {"measurement": "Plant response rating, Chickweed", "setting": "chickweed; Rate 200 g/ha, PREEMERGENCE", "value": 3},
      {"measurement": "Plant response rating (0 to 10 scale), Corn", "setting": "corn; POSTEMERGENCE, Rate 50 g/ha", "value": 5},
      {"measurement": "Plant response rating, Corn", "setting": "corn; POSTEMERGENCE, Rate 200 g/ha", "value": 5},
      {"measurement": "Plant response rating, Corn", "setting": "corn; PREEMERGENCE, Rate 50 g/ha", "value": 0},
      {"measurement": "Plant response rating, Corn", "setting": "corn; Rate 200 g/ha, PREEMERGENCE", "value": 1},
      {"measurement": "Plant response rating (0 to 10 scale), Crabgrass", "setting": "crabgrass; POSTEMERGENCE, Rate 50 g/ha", "value": 5},
      {"measurement": "Plant response rating, Crabgrass", "setting": "crabgrass; POSTEMERGENCE, Rate 200 g/ha", "value": 5},
      {"measurement": "Plant response rating, Crabgrass", "setting": "crabgrass; PREEMERGENCE, Rate 50 g/ha", "value": 0},
      {"measurement": "Plant response rating, Crabgrass", "setting": "crabgrass; Rate 200 g/ha, PREEMERGENCE", "value": 7},
      {"measurement": "Plant response rating, Giant foxtail", "setting": "giant foxtail; POSTEMERGENCE, Rate 50 g/ha", "value": 4},
      {"measurement": "Plant response rating, Giant foxtail", "setting": "giant foxtail; POSTEMERGENCE, Rate 200 g/ha", "value": 5},
      {"measurement": "Plant response rating, Giant foxtail", "setting": "giant foxtail; PREEMERGENCE, Rate 50 g/ha", "value": 3},
      {"measurement": "Plant response rating, Giant foxtail", "setting": "giant foxtail; Rate 200 g/ha, PREEMERGENCE", "value": 8},
      {"measurement": "Plant response rating, Rape", "setting": "rape; POSTEMERGENCE, Rate 50 g/ha", "value": 5},
      {"measurement": "Plant response rating, Rape", "setting": "rape; POSTEMERGENCE, Rate 200 g/ha", "value": 7},
      {"measurement": "Plant response rating, Rape", "setting": "rape; PREEMERGENCE, Rate 50 g/ha", "value": 2},
      {"measurement": "Plant response rating, Rape", "setting": "rape; Rate 200 g/ha, PREEMERGENCE", "value": 8},
      {"measurement": "Plant response rating, Sorghum", "setting": "sorghum; POSTEMERGENCE, Rate 50 g/ha", "value": 5},
      {"measurement": "Plant response rating, Sorghum", "setting": "sorghum; POSTEMERGENCE, Rate 200 g/ha", "value": 6},
      {"measurement": "Plant response rating, Sorghum", "setting": "sorghum; PREEMERGENCE, Rate 50 g/ha", "value": 0},
      {"measurement": "Plant response rating, Sorghum", "setting": "sorghum; Rate 200 g/ha, PREEMERGENCE", "value": 1},
      {"measurement": "Plant response rating, Wheat", "setting": "wheat; POSTEMERGENCE, Rate 50 g/ha", "value": 3},
      {"measurement": "Plant response rating, Wheat", "setting": "wheat; POSTEMERGENCE, Rate 200 g/ha", "value": 4},
      {"measurement": "Plant response rating, Wheat", "setting": "wheat; PREEMERGENCE, Rate 50 g/ha", "value": 0},
      {"measurement": "Plant response rating, Wheat", "setting": "wheat; Rate 200 g/ha, PREEMERGENCE", "value": 1}
    ]},
    {"smiles": "CCS(=O)(=O)Oc1cc(-c2nn3c(c2Cl)CCCC3)c(F)cc1Cl", "note": "[Compound 25]", "values": [
      {"measurement": "Plant response rating (0 to 10 scale), Barley", "setting": "barley; POSTEMERGENCE, Rate 50 g/ha", "value": 4},
      {"measurement": "Plant response rating, Barley", "setting": "barley; POSTEMERGENCE, Rate 200 g/ha", "value": 5},
      {"measurement": "Plant response rating, Barley", "setting": "barley; PREEMERGENCE, Rate 50 g/ha", "value": 0},
      {"measurement": "Plant response rating, Barley", "setting": "barley; Rate 200 g/ha, PREEMERGENCE", "value": 0},
      {"measurement": "Plant response rating (0 to 10 scale), Barnyardgrass", "setting": "barnyardgrass; POSTEMERGENCE, Rate 50 g/ha", "value": 3},
      {"measurement": "Plant response rating, Barnyardgrass", "setting": "barnyardgrass; POSTEMERGENCE, Rate 200 g/ha", "value": 5},
      {"measurement": "Plant response rating, Barnyardgrass", "setting": "barnyardgrass; PREEMERGENCE, Rate 50 g/ha", "value": 2},
      {"measurement": "Plant response rating, Barnyardgrass", "setting": "barnyardgrass; Rate 200 g/ha, PREEMERGENCE", "value": 6},
      {"measurement": "Plant response rating, Chickweed", "setting": "chickweed; PREEMERGENCE, Rate 50 g/ha", "value": 0},
      {"measurement": "Plant response rating, Chickweed", "setting": "chickweed; Rate 200 g/ha, PREEMERGENCE", "value": 9},
      {"measurement": "Plant response rating (0 to 10 scale), Corn", "setting": "corn; POSTEMERGENCE, Rate 50 g/ha", "value": 3},
      {"measurement": "Plant response rating, Corn", "setting": "corn; POSTEMERGENCE, Rate 200 g/ha", "value": 6},
      {"measurement": "Plant response rating, Corn", "setting": "corn; PREEMERGENCE, Rate 50 g/ha", "value": 0},
      {"measurement": "Plant response rating, Corn", "setting": "corn; Rate 200 g/ha, PREEMERGENCE", "value": 0},
      {"measurement": "Plant response rating (0 to 10 scale), Crabgrass", "setting": "crabgrass; POSTEMERGENCE, Rate 50 g/ha", "value": 3},
      {"measurement": "Plant response rating, Crabgrass", "setting": "crabgrass; POSTEMERGENCE, Rate 200 g/ha", "value": 2},
      {"measurement": "Plant response rating, Crabgrass", "setting": "crabgrass; PREEMERGENCE, Rate 50 g/ha", "value": 5},
      {"measurement": "Plant response rating, Crabgrass", "setting": "crabgrass; Rate 200 g/ha, PREEMERGENCE", "value": 7},
      {"measurement": "Plant response rating, Giant foxtail", "setting": "giant foxtail; POSTEMERGENCE, Rate 50 g/ha", "value": 3},
      {"measurement": "Plant response rating, Giant foxtail", "setting": "giant foxtail; POSTEMERGENCE, Rate 200 g/ha", "value": 4},
      {"measurement": "Plant response rating, Giant foxtail", "setting": "giant foxtail; PREEMERGENCE, Rate 50 g/ha", "value": 2},
      {"measurement": "Plant response rating, Giant foxtail", "setting": "giant foxtail; Rate 200 g/ha, PREEMERGENCE", "value": 7},
      {"measurement": "Plant response rating, Rape", "setting": "rape; POSTEMERGENCE, Rate 50 g/ha", "value": 10},
      {"measurement": "Plant response rating, Rape", "setting": "rape; POSTEMERGENCE, Rate 200 g/ha", "value": 10},
      {"measurement": "Plant response rating, Rape", "setting": "rape; PREEMERGENCE, Rate 50 g/ha", "value": 0},
      {"measurement": "Plant response rating, Rape", "setting": "rape; Rate 200 g/ha, PREEMERGENCE", "value": 9},
      {"measurement": "Plant response rating, Sorghum", "setting": "sorghum; POSTEMERGENCE, Rate 50 g/ha", "value": 4},
      {"measurement": "Plant response rating, Sorghum", "setting": "sorghum; POSTEMERGENCE, Rate 200 g/ha", "value": 5},
      {"measurement": "Plant response rating, Sorghum", "setting": "sorghum; PREEMERGENCE, Rate 50 g/ha", "value": 0},
      {"measurement": "Plant response rating, Sorghum", "setting": "sorghum; Rate 200 g/ha, PREEMERGENCE", "value": 2},
      {"measurement": "Plant response rating, Wheat", "setting": "wheat; POSTEMERGENCE, Rate 50 g/ha", "value": 3},
      {"measurement": "Plant response rating, Wheat", "setting": "wheat; POSTEMERGENCE, Rate 200 g/ha", "value": 4},
      {"measurement": "Plant response rating, Wheat", "setting": "wheat; PREEMERGENCE, Rate 50 g/ha", "value": 0},
      {"measurement": "Plant response rating, Wheat", "setting": "wheat; Rate 200 g/ha, PREEMERGENCE", "value": 2}
    ]}
  ]
}
